For 15 compounds, IC50 results are on record in US7276511B2, “Benzylamine derivative” (Zeria Pharmaceutical Co., Ltd., priority 2003, dated 2007).

Each structure is given as a SMILES string. Where a name gives a salt, the structure may show the parent alone.

For one test, the target named is NK-1 receptor (Homo sapiens, UniProt P25103). The test is described as follows: NK-1 receptor-binding test ([3H]-Substance P, hNK1-CHO cells). Set-up: expressed in transfected cells; host or cells: CHO-K1 cells (ATCC: CCL-61), G418-resistant, hNK1-CHO.
Chain of NK-1 receptor (P25103 whole entry): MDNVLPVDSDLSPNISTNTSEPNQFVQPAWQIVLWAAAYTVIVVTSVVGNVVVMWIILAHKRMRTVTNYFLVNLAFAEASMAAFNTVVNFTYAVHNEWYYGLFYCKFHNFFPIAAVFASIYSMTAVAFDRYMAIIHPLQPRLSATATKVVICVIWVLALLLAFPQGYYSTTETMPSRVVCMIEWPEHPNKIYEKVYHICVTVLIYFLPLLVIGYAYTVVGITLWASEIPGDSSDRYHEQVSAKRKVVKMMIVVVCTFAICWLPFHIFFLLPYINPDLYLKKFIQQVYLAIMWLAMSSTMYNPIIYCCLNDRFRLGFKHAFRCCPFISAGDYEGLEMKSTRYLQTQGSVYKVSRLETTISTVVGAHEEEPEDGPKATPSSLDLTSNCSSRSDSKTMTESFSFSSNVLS
Conditions: not given
The procedure: 1. NK-1 Receptor-binding Test
1) Preparation of Human NK-1 Receptor Expression Cells
FuGene 6 transfection reagent (Boegringer Mannheim) (3 μL) was diluted in an F-12 culture broth (97 μL), and pCR3.1 plasmid to which human NK-1 receptor cDNA had been introduced (Invitrogen) (10 μL) was added thereto. The mixture was mixed and incubated for 15 minutes (transfection reagent). CHO-K1 cells (ATCC: CCL-61) were cultured for 24 hours, and the whole reagent prepared above was added to the cultured CHO-K1 cells ([…]). Subsequently, culture was performed in the presence of G418 (Stratagene), and the resistant cells were employed as cells into which human NK-1 receptor gene was introduced (hNK1-CHO).
2) Subcultivation of hNK1-CHO Cells
The hNK1-CHO cells were treated with trypsin-EDTA and subcultivated in an F-12 culture broth (containing 10% fetal bovine serum, 10 mM HEPES, 100 U/mL, penicillin, 100 μg/mL streptmycin, 400 μg/mL G418) in a 75-cm^2 flask (FALCON). Cells to be employed in the receptor-binding experiment were added to a 24-well plate (IWAKI) at 1×10^5 cells/well, and subcultured for 48 hours at 37° C. under 95% […] and 5% CO2.
3) Receptor-binding Experiment
When the hNK1-CHO cells became subconfluent on the 24-well plate, an F-12 culture broth (containing 10 mM HEPES and 0.1% fetal bovine serum) (450 μL), [^3H]-Substance P (Amersham, final concentration 0.5 nM), and a test compound were added to the cells, and the mixture was incubated for 40 minutes at 37° C. For the measurement of non-specific binding, L703606 (Sigma) was added instead of the test compound. After completion of incubation, the mixture was washed with ice-cooled phosphate buffered saline containing 0.1% fetal bovine serum, and the cells were lysed with 1N NaOH (0.5 mL). The lysate was transfered to a plastic vial containing UltimaGold MV (5 mL), and the radioactivity was determined by means of a liquid liquid scintillation counter (Packard, 2000CA).
Percent radioactive ligand-receptor binding inhibition of each test compound was calculated by use of the following equation, and IC50 (nM) was determined through pseudo-Hill analysis.
Percent inhibition (%)=[1−(C−A)/(B−A)]×100
A: Radioactivity attributed to non-specific binding
B: Radioactivity without test compound
C: Radioactivity with test compound
The compound `COc1cc(C(=O)N(C)C[C@](CCCN2CCC3(CC2)c2ccccc2C[S@+]3[O-])(c2ccc(Cl)c(Cl)c2)N(C)C(=O)Oc2ccccc2)cc(OC)c1OC` [Compound No. 589, phenyl{1-(3,4,5-trimethoxy-N-methylbenzamide)-2-(S)-(3,4-dichlorophenyl)-5-[spiro(benzo(c)thiophene-(2S)-oxido-1(3H),4′-piperidin)-1′-yl]pentan-2-yl}methylcarbamate hydrochloride] had an IC50 of 0.53 nM. For the compound `CN(C[C@](CCCN1CCC2(CC1)c1ccccc1C[S@+]2[O-])(c1ccc(Cl)c(Cl)c1)N(C)C(=O)Oc1ccc(Cl)c(Cl)c1)C(=O)CC(F)(F)F` [Compound No. 654, 3,4-dichlorophenyl{1-(3,3,3-trifluoro-N-methylpropanamido)-2-(S)-(3,4-dichlorophenyl)-5-[spiro(benzo(c)thiophene-(2S)-oxido-1(3H),4′-piperidin)-1′-yl]pentan-2-yl}methylcarbamate hydrochloride], the IC50 was 3 nM. Still for that read-out and setting: in the case of `CN(C[C@](CCCN1CCC(C(N)=O)(c2ccccc2)CC1)(c1ccc(Cl)c(Cl)c1)N(C)C(=O)Oc1ccccc1)C(=O)C(F)(F)F` [Compound No. 578, phenyl[1-(2,2,2-trifluoro-N-methylacetamide)-2-(S)-(3,4-dichlorophenyl)-5-(4-carbamoyl-4-phenylpiperidine-1′-yl)pentan-2-yl]methylcarbamate hydrochloride] it was 9.5 nM. Same read-out and setting: the same measure for `CN(C[C@](CCCN1CCC2(CC1)c1ccccc1C[S@+]2[O-])(c1ccc(Cl)c(Cl)c1)N(C)C(=O)Oc1ccccc1)C(=O)CC(F)(F)F` [Compound No. 591, phenyl{1-(3,3,3-trifluoro-N-methylpropanamido)-2-(S)-(3,4-dichlorophenyl)-5-[spiro(benzo(c)thiophene-(2S)-oxido-1(3H),4′-piperidin)-1′-yl]pentan-2-yl}methylcarbamate hydrochloride]: 6.9 nM; for `CN(C[C@](CCCN1CCC2(CC1)c1ccccc1C[S@+]2[O-])(c1ccc(Cl)c(Cl)c1)N(C)C(=O)Oc1cccc(Cl)c1Cl)C(=O)CC(F)(F)F` [Compound No. 653, 2,3-dichlorophenyl{1-(3,3,3-trifluoro-N-methylpropanamido)-2-(S)-(3,4-dichlorophenyl)-5-[spiro(benzo(c)thiophene-(2S)-oxido-1(3H),4′-piperidin)-1′-yl]pentan-2-yl}methylcarbamate hydrochloride]: 1.6 nM; for `CN(C[C@](CCCN1CCC2(CC1)c1ccccc1C[S@+]2[O-])(c1ccc(Cl)c(Cl)c1)N(C)C(=O)Oc1ccc(F)c(F)c1)C(=O)CC(F)(F)F` [compound 655, 3,4-difluorophenyl{1-(3,3,3-trifluoro-N-methylpropanamido)-2-(S)-(3,4-dichlorophenyl)-5-[spiro(benzo(c)thiophene-(2S)-oxido-1(3H),4′-piperidin)-1′-yl]pentan-2-yl}methylcarbamate hydrochloride]: 1.3 nM. On the same count and under the same terms, the same measure for `CN(C[C@](CCCN1CCC2(CC1)c1ccccc1C[S@+]2[O-])(c1ccc(Cl)c(Cl)c1)N(C)C(=O)Oc1cccc(F)c1)C(=O)CC(F)(F)F` [Compound No. 634, 3-fluorophenyl{1-(3,3,3-trifluoro-N-methylpropanamido)-2-(S)-(3,4-dichlorophenyl)-5-[spiro(benzo(c)thiophene-(2S)-oxido-1(3H),4′-piperidin)-1′-yl]pentan-2-yl}methylcarbamate hydrochloride]: 2 nM; for `COc1cc(COCC(CCCN2CCC(C(N)=O)(c3ccccc3)CC2)(c2ccc(Cl)c(Cl)c2)N(C)C(=O)Oc2ccccc2)cc(OC)c1OC` (racemic) [Compound No. 17, [4-(4-Carbamoyl-4-phenyl-piperidine-1-yl)-1-(3,4-dichloro-phenyl)-1-(3,4,5-trimethoxy-benzyloxymethyl)-butyl]-methyl-carbamic acid phenyl ester hydrochloride]: 1.5 nM.

`COc1ccc(OC(=O)N(C)[C@](CCCN2CCC3(CC2)c2ccccc2C[S@+]3[O-])(CN(C)C(=O)CC(F)(F)F)c2ccc(Cl)c(Cl)c2)cc1` [Compound No. 640, 4-methoxyphenyl{1-(3,3,3-trifluoro-N-methylpropanamido)-2-(s)-(3,4-dichlorophenyl)-5-[spiro(benzo(c)thiophene-(2S)-oxido-1(3H),4′-piperidin)-1′-yl]pentan-2-yl}methylcarbamate hydrochloride] yielded an IC50 of 6 nM. On the same count and under the same terms, the same measure for `COc1cccc(OC(=O)N(C)[C@](CCCN2CCC3(CC2)c2ccccc2C[S@+]3[O-])(CN(C)C(=O)CC(F)(F)F)c2ccc(Cl)c(Cl)c2)c1` [Compound No. 637, 3-methoxyphenyl{1-(3,3,3-trifluoro-N-methylpropanamido)-2-(S)-(3,4-dichlorophenyl)-5-[spiro(benzo(c)thiophene-(2S)-oxido-1(3H), 41-piperidin)-1′-yl]pentan-2-yl}methylcarbamate hydrochloride]: 1.7 nM.

The test is the same for the next values; noted with them: Table 2; inhibition of [3H]-Substance P (0.5 nM) binding to hNK1-CHO cells, pseudo-Hill analysis; read-out: NK-1.
With `COc1cc(COC[C@](CCCN2CCC3(CC2)c2ccccc2C[S@+]3[O-])(c2ccc(Cl)c(Cl)c2)N(C)C(=O)NCc2ccccc2F)cc(OC)c1OC` [Compound No. 617, 1-{1-(3,4,5-trimethoxybenzyloxy)-2-(S)-(3,4-dichlorophenyl)-5-[spiro(benzo(c)thiophene(2S)-oxido-1(3H),4′-piperidin)-1′-yl]pentan-2-yl}-3-(2-fluorobenzyl)-1-methylurea hydrochloride], the IC50 was determined as 0.54 nM. Regarding `COc1cc(C(=O)N(C)CC(CCN2CCC(C(N)=O)(c3ccccc3)CC2)(c2ccc(Cl)c(Cl)c2)N(C)C(=O)Oc2ccccc2)cc(OC)c1OC` (racemic) [Compound No. 16, (3-(4-Carbamoyl-4-phenyl-piperidine-1-yl)-1-(3,4-dichloro-phenyl)-1-{[methyl-(3,4,5-trimethoxy-benzoyl)-amino]-methyl}-propyl)-methyl-carbamic acid phenyl ester hydrochloride], the IC50 worked out at 3.5 nM. As to `COc1cc(COC[C@](CCCN2CCC3(CC2)c2ccccc2C[S@+]3[O-])(c2ccc(Cl)c(Cl)c2)N(C)C(=O)NCc2cccc(F)c2)cc(OC)c1OC` [Compound No. 618, 1-{1-(3,4,5-trimethoxybenzyloxy)-2-(S)-(3,4-dichlorophenyl)-5-[spiro(benzo(c)thiophene(2S)-oxido-1(3H),4′-piperidin)-1′-yl]pentan-2-yl}-3-(3-fluorobenzyl)-1-methylurea hydrochloride], the IC50 came to 1.2 nM.

In the case of `COc1cc(COC[C@](CCCN2CCC3(CC2)c2ccccc2C[S@+]3[O-])(c2ccc(Cl)c(Cl)c2)N(C)C(=O)NCc2ccc(F)cc2)cc(OC)c1OC` [Compound No. 621, 1-{1-(3,4,5-trimethoxybenzyloxy)-2-(S)-(3,4-dichlorophenyl)-5-[spiro(benzo(c)thiophene(2S)-oxido-1(3H),4′-piperidin)-1′-yl]pentan-2-yl}-3-(4-fluorobenzyl)-1-methylurea hydrochloride], the IC50 is 0.94 nM. Regarding `COc1cc(COCC(CCCN2CCC(C(N)=O)(c3ccccc3)CC2)(c2ccc(Cl)c(Cl)c2)N(C)C(=O)Nc2ccccc2)cc(OC)c1OC` (racemic) [Compound No. 15, 1-[4-(3,4-Dichloro-phenyl)-4-(1-methyl-3-phenyl-ureido)-5-(3,4,5-trimethoxy-benzyloxy)-pentyl]-4-phenyl-piperidine-4-carboxylic acid amide], the IC50 is 0.9 nM.
